How the values were obtained:
ECHCO = assay: Postemergence foliar-applied, direct seeded rice weeds (Example I); type: in vivo, Echinochloa colona (L.) Link
From the text: Seeds or nutlets of the desired test plant species were planted in a soil matrix prepared by mixing a loam or sandy loam soil (e.g., 28.6 percent silt, 18.8 percent clay, and 52.6 percent sand, with a pH of about 5.8 and an organic matter content of about 1.8 percent) and calcareous grit in an 80 to 20 ratio. The soil matrix was contained in plastic pots with a volume of 1 quart and a surface area of 83.6 cm^2. When required to ensure good germination and healthy plants, a fungicide treatment and/or other chemical or physical treatment was applied. The plants were grown for 8-22 days in a greenhouse with an approximate 14 h photoperiod which was maintained at about 29° C. during the day and 26° C. during the night. Nutrients (Peters Excel® 15-5-15 5-Ca 2-Mg and iron chelate) were applied in the irrigation solution as needed and water was added on a regular basis. Supplemental lighting was provided with overhead metal halide 1000-Watt lamps as necessary. The plants were employed for testing when they reached the first through fourth true leaf stage.
Treatments consisted of the acid or esters of 4-amino-3-chloro-5-fluoro-6-(4-chloro-2-fluoro-3-methoxy-phenyl)pyridine-2-carboxylic acid (Compound A), each formulated as an SC (suspension concentrate), and various herbicidal components alone and in combination. Forms of compound A were applied on an acid equivalent basis.
Other herbicidal components were applied on an acid equivalent basis and include acetolactate synthase (ALS)-inhibiting herbicides (imidazolinone chemical class) imazethapyr ammonium salt formulated as Newpath®, imazamox ammonium salt formulated as Beyond®, imazapic ammonium salt formulated as Plateau®, imazapyr isopropylamine salt formulated as Arsenal®, imazamethabenz-methyl (technical material) and imazaquin isopropylamine salt formulated as Scepter®/Imagine®.
Treatment requirements were calculated based upon the rates being tested, the concentration of active ingredient or acid equivalent in the formulation, and a 12 mL application volume at a rate of 187 L/ha.
For treatments comprised of formulated compounds, measured amounts of compounds were placed individually in 25 mL glass vials and diluted in a volume of 1.25% (v/v) Agri-Dex® crop oil concentrated to obtain 12× stock solutions. […]
For treatments comprised of formulated and technical compounds, weighed amounts of the technical materials were placed individually in 25 mL glass vials and dissolved in a volume of 97:3 v/v acetone/DMSO to obtain 12× stock solutions, and measured amounts of the formulated compounds were placed individually in 25 mL glass vials and diluted in a volume of 1.5% (v/v) crop oil concentrate or water to obtain 12× stock solutions. […]

LEFCH = assay: In-water applied, transplanted paddy rice weeds (Example II); type: in vivo, Leptochloa chinensis (L.) Nees
Method: Weed seeds or nutlets of the desired test plant species were planted in puddled soil (mud) prepared by mixing a shredded, non-sterilized mineral soil (50.5 percent silt, 25.5 percent clay, and 24 percent sand, with a pH of about 7.6 and an organic matter content of about 2.9 percent) and water at a 1:1 volumetric ratio. The prepared mud was dispensed in 365 mL aliquots into 16-ounce (oz.) non-perforated plastic pots with a surface area of 86.59 square centimeters (cm^2) leaving a headspace of 3 centimeters (cm) in each pot. Mud was allowed to dry overnight prior to planting or transplanting. Rice seeds were planted in Sun Gro MetroMix® 306 planting mixture, which typically has a pH of about 6.0 to about 6.8 and an organic matter content of about 30 percent, in plastic plug trays. Seedlings at the second or third leaf stage of growth were transplanted into 860 mL of mud contained in 32-oz. non-perforated plastic pots with a surface area of 86.59 cm^2 4 days prior to herbicide application. The paddy was created by filling the headspace of the pots with 2.5 to 3 cm of water. When required to ensure good germination and healthy plants, a fungicide treatment and/or other chemical or physical treatment was applied. The plants were grown for 4-22 days in a greenhouse with an approximate 14 h photoperiod which was maintained at about 29° C. during the day and about 26° C. during the night. Nutrients were added as Osmocote® (19:6:12, N:P:K+minor nutrients) at 2 g per 16-oz. pot and 4 g per 32-oz. pot. Water was added on a regular basis to maintain the paddy flood, and supplemental lighting was provided with overhead metal halide 1000-Watt lamps as necessary. The plants were employed for testing when they reached the first through fourth true leaf stage.
Treatments consisted of the acid or esters of 4-amino-3-chloro-5-fluoro-6-(4-chloro-2-fluoro-3-methoxy-phenyl)pyridine-2-carboxylic acid (compound A) each formulated as an SC and various herbicidal components alone and in combination. Forms of compound A were applied on an acid equivalent basis. […]
Treatment requirements for each compound or herbicidal component were calculated based upon the rates being tested, the concentration of active ingredient or acid equivalent in the formulation, an application volume of 2 mL per component per pot, and an application area of 86.59 cm^2 per pot.
For formulated compounds, a measured amount was placed in an individual 100 or 200 mL glass vial and was dissolved in a volume of 1.25% (v/v) Agri-Dex® crop oil concentrate to obtain application solutions. […]

Cc1cnc(C2=NC(C)(C(C)C)C(=O)N2)c(C(=O)O)c1.N (racemic) [Imazapic ammonium, ammonium (±)-2-[4,5-dihydro-4-methyl-4-(1-methylethyl)-5-oxo-1H-imidazol-2-yl]-5-methyl-3-pyridinecarboxylic acid]
Visual Weed Control (%) - 25 DAA ECHCO Obs (ECHCO; Imazapic ammonium 17.5 gae/ha): 70%

COc1c(Cl)ccc(-c2nc(C(=O)O)c(Cl)c(N)c2F)c1F [Compound A Acid, 4-amino-3-chloro-6-(4-chloro-2-fluoro-3-methoxyphenyl)-5-fluoropyridine-2-carboxylic acid]
Visual Weed Control (%) - 25 DAA ECHCO Obs (ECHCO; Compound A Acid 4.38 gae/ha): 60%
Visual Weed Control (%) - 25 DAA ECHCO Obs (ECHCO; Compound A Acid 8.75 gae/ha): 65%
Visual Weed Control (%) - 25 DAA ECHCO Obs (ECHCO; Compound A Acid 17.5 gae/ha): 90%

CCc1cnc(C2=NC(C)(C(C)C)C(=O)N2)c(C(=O)O)c1.N (racemic) [Imazethapyr ammonium, ammonium (±)-2-[4,5-dihydro-4-methyl-4-(1-methylethyl)-5-oxo-1H-imidazol-2-yl]-5-ethyl-3-pyridinecarboxylate]
Visual Weed Control (%) - 25 DAA LEFCH Obs (LEFCH; Imazethapyr ammonium 8.75 gae/ha): 0%
Visual Weed Control (%) - 25 DAA LEFCH Obs (LEFCH; Imazethapyr ammonium 17.5 gae/ha): 0%
Visual Weed Control (%) - 25 DAA LEFCH Obs (LEFCH; Imazethapyr ammonium 35 gae/ha): 95%

COc1c(Cl)ccc(-c2nc(C(=O)OCc3ccccc3)c(Cl)c(N)c2F)c1F [Compound A Benzyl Ester, benzyl ester of 4-amino-3-chloro-5-fluoro-6-(4-chloro-2-fluoro-3-methoxy-phenyl)pyridine-2-carboxylic acid]
Visual Weed Control (%) - 25 DAA LEFCH Obs (LEFCH; Compound A Benzyl Ester 8.75 gae/ha): 0%

Reference: patent US8906826B2, “Herbicidal compositions comprising 4-amino-3-chloro-5-fluoro-6-(4-chloro-2-fluoro-3-methoxyphenyl) pyridine-2-carboxylic acid or a derivative thereof and imidazolinones” (Dow AgroSciences, LLC, priority 2012, dated 2014)
